Format in all cases: biochemical
The target of test [1] is T1, AChE (from electrophorus electricus) (Electrophorus electricus, UniProt O42275).
T1 construct: purchased Merck or Aldrich
Briefly: Cholinesterase inhibition assay (Ellman's method), AChE. To be noted: test concentration not given. As for the experimental part:
(§1) AChE from electrophorus electricus and BuChE from equine serum was employed for Ellman’s assay. Each compound (5.0 mg) was dissolved in 1.0 ml of DMSO. […] Briefly, a mixture of phosphate buffer (2.0 ml, 0.1 M, pH = 8.0), 60.0 µl of DTNB solution, and 20.0 µl of AChE/BuChE was prepared, and 30.0 µl of the test compounds in different concentrations were then added to the mixture. Next, a solution of the substrate (acetylthiocholine iodide/butyrylthiocholine iodide, 20.0 µl) was added to the mixture after 10 min incubation at 25°C. All experiments were performed in triplicates, and the temperature of all solutions was controlled to be maintained at 25°C. […] The blank solution was used to validate the non-enzymatic hydrolysis of the substrate during the assessment. The blank solution was prepared by a mixture of 2.0 ml of buffer, 30.0 μl of DMSO, 60.0 μl of DTNB, and 20.0 μl of substrate. The rate of the enzymatic hydrolysis of the substrate was calculated, and % inhibition of the compounds was determined. The half maximal inhibitory concentration (IC50) values were graphically determined from inhibition curves (logarithm of the concentration of the tested compound versus percent of the inhibition).
(DTNB colorimetry detects thiols as they appear.)

Test [2] addresses T2, 15-LOX (soybean lipoxygenase) (Glycine max, UniProt P08170).
T2 construct: purchased Merck or Aldrich
T2 sequence (P08170 1-839): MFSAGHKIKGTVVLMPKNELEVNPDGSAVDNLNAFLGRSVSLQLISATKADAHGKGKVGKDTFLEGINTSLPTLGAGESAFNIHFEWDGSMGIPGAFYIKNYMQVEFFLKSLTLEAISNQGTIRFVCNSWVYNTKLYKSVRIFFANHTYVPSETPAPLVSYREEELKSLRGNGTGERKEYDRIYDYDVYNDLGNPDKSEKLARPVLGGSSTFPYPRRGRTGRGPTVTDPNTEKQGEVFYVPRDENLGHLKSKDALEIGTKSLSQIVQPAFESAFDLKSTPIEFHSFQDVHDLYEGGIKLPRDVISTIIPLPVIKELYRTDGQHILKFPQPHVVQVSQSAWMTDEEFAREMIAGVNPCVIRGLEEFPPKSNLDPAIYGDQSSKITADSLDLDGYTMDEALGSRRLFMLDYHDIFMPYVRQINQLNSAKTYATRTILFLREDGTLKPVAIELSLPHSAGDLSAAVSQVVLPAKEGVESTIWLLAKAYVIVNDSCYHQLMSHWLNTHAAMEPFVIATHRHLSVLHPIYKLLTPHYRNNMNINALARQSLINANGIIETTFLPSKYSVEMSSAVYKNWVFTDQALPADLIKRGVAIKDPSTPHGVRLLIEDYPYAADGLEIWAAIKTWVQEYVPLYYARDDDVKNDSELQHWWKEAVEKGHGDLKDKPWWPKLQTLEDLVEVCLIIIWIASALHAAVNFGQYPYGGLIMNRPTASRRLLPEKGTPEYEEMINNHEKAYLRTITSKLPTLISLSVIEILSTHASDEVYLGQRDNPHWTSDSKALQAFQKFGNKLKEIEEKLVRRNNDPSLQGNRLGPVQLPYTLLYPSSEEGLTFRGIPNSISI
Briefly: Soybean 15-LOX inhibition assay. On the procedure:
A solution of the target compound was prepared in DMSO, and it was diluted with phosphate buffer (0.1 M, pH = 8.0).

The target in test [3] is T3, BuChE (from equine serum) (Equus caballus, UniProt P81908).
T3 construct: BuChE from equine serum was employed for Ellman’s assay; purchased Merck or Aldrich; host or cells: equine serum
T3 sequence (P81908 whole entry): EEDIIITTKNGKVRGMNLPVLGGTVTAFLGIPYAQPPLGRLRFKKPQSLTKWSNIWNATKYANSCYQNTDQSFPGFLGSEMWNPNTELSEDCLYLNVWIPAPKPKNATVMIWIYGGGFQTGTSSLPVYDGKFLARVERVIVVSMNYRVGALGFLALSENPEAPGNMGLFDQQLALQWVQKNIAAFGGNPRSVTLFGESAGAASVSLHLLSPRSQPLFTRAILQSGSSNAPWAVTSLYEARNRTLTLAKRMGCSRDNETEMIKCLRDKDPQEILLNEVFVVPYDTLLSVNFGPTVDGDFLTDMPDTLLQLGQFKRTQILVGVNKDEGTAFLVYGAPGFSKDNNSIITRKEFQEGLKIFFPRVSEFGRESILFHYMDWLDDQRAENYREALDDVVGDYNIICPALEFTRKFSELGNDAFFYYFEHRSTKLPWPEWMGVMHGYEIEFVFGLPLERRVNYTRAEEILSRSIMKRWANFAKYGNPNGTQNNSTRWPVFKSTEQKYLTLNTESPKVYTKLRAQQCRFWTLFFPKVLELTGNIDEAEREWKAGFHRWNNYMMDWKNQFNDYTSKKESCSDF
Briefly: biochemical. To be noted: for eq BuChE %inhib.: test concentration not given; for IC50: mean ± SEM of three experiments, read-out: eq BuChE IC50. As for the experimental part: as §1

Test [4] addresses T4, Aβ1-42 (Homo sapiens, UniProt P05067).
T4 construct: was used to dissolve amyloid β1-40 (Sigma A1075); purchased Sigma A1075
Briefly: Self-induced Aβ1-42 aggregation (ThT assay). To be noted: Aβ1-42 10.0 μM, compound 100.0 μM, ThT.

The mark [5] stands for this setting: soybean lipoxygenase, linoleic acid substrate, read-out: 15-LOX IC50.

Read-outs that look alike come from different tables or passages of the source.

T1 sequence (O42275 24-633): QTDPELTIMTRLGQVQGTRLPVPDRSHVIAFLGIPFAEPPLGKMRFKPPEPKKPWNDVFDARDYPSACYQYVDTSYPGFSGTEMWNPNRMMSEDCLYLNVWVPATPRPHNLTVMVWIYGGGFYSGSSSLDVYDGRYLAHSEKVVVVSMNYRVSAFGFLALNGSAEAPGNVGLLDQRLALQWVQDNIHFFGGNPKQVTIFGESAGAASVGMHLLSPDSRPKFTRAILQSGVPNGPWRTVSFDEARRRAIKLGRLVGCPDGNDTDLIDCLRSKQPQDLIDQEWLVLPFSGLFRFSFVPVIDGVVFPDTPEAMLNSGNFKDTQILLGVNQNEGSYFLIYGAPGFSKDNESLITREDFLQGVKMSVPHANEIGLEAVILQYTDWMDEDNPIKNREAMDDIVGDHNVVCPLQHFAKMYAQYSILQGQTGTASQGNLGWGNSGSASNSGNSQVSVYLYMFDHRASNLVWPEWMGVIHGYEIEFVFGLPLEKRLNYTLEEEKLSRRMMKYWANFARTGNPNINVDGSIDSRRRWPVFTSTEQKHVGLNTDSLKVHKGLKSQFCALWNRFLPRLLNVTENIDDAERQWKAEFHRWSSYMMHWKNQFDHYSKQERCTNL
T4 sequence (P05067 672-711): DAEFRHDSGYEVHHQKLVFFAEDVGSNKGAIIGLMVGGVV

One may read the IC50 as the concentration needed to halve the response being measured. Take `O=c1oc2ccc(Br)cc2cc1-c1ccc(OCc2cn(Cc3ccc(Br)cc3)nn2)cc1` [8t, 6-Bromo-3-(4-((1-(4-bromobenzyl)-1H-1,2,3-triazol-4-yl)methoxy)phenyl)-2H-chromen-2-one]: the “ee AChE %inhib.” value in test [1] turned out to be 15.1%. The IC50 in test [2] (setting [5]) was above 100 µM.
The like results for `O=c1oc2ccccc2cc1-c1ccc(OCc2cn(Cc3ccccc3[N+](=O)[O-])nn2)cc1` [8h, 3-(4-((1-(2-Nitrobenzyl)-1H-1,2,3-triazol-4-yl)methoxy)phenyl)-2H-chromen-2-one] were, in that order, 20.8% and above 100 µM.
Consider `Cc1cccc(Cn2cc(COc3ccc(-c4cc5ccccc5oc4=O)cc3)nn2)c1` [8k, 3-(4-((1-(3-Methylbenzyl)-1H-1,2,3-triazol-4-yl)methoxy)phenyl)-2H-chromen-2-one], for which the “ee AChE %inhib.” value in test [1] came to 27.4%. In addition, the “eq BuChE %inhib.” value in test [3] is recorded as 37.1%. Further, the IC50 in test [2] (setting [5]) came to 53.5 ± 1.5 µM.
Take `O=c1oc2ccccc2cc1-c1ccc(OCc2cn(Cc3ccc(F)cc3)nn2)cc1` [8d, 3-(4-((1-(4-Fluorobenzyl)-1H-1,2,3-triazol-4-yl)methoxy)phenyl)-2H-chromen-2-one]: the “ee AChE %inhib.” value in test [1] is listed as 32.4%. Besides, in test [3], the “eq BuChE %inhib.” value amounted to 12.7%. The same compound returned an IC50 in test [2] of 45.2 ± 1.5 µM.
For `O=c1oc2ccccc2cc1-c1ccc(OCc2cn(Cc3ccccc3F)nn2)cc1` [8b, 3-(4-((1-(2-Fluorobenzyl)-1H-1,2,3-triazol-4-yl)methoxy)phenyl)-2H-chromen-2-one], in test [1], the “ee AChE %inhib.” value was 11.2%. The IC50 in test [3] is 36.5 ± 1.1 µM; in test [2], 16.5 ± 0.7 µM.
In the case of `O=c1oc2ccccc2cc1-c1ccc(OCc2cn(Cc3ccc(Cl)cc3)nn2)cc1` [8f, 3-(4-((1-(4-Chlorobenzyl)-1H-1,2,3-triazol-4-yl)methoxy)phenyl)-2H-chromen-2-one], in test [1], the “ee AChE %inhib.” value came to 41.4%. In test [3], the “eq BuChE %inhib.” value stood at 23.6%. Besides, the IC50 in test [2] (setting [5]) was above 100 µM.
`O=c1oc2ccccc2cc1-c1ccc(OCc2cn(Cc3ccccc3Cl)nn2)cc1` [8e, 3-(4-((1-(2-Chlorobenzyl)-1H-1,2,3-triazol-4-yl)methoxy)phenyl)-2H-chromen-2-one]: the “ee AChE %inhib.” value in test [1] was 37.3%. Also, the IC50 in test [2] (setting [5]) is above 100 µM.
`O=c1oc2ccc(Br)cc2cc1-c1ccc(OCc2cn(Cc3ccccc3F)nn2)cc1` [8u, 6-Bromo-3-(4-((1-(2-fluorobenzyl)-1H-1,2,3-triazol-4-yl)methoxy)phenyl)-2H-chromen-2-one]: the “ee AChE %inhib.” value in test [1] came to 45.1%. The “eq BuChE %inhib.” value in test [3] amounted to 46.6%. In addition, the IC50 in test [2] (setting [5]) is 61.5 ± 1.9 µM.
The like results for `COc1cccc2cc(-c3ccc(OCc4cn(Cc5ccccc5[N+](=O)[O-])nn4)cc3)c(=O)oc12` [8s, 8-Methoxy-3-(4-((1-(2-nitrobenzyl)-1H-1,2,3-triazol-4-yl)methoxy)phenyl)-2H-chromen-2-one] were, in that order, 27.4%, 42.5% and above 100 µM.
For `O=c1oc2ccc([N+](=O)[O-])cc2cc1-c1ccc(OCc2cn(Cc3ccccc3F)nn2)cc1` [8w, 3-(4-((1-(2-Fluorobenzyl)-1H-1,2,3-triazol-4-yl)methoxy)phenyl)-6-nitro-2H-chromen-2-one], the “ee AChE %inhib.” value in test [1] is 16.6%. The “eq BuChE %inhib.” value in test [3] was 30.4%. For the same compound, the IC50 in test [2] (setting [5]) is above 100 µM.
On to `COc1cccc2cc(-c3ccc(OCc4cn(Cc5ccccc5F)nn4)cc3)c(=O)oc12` [8o, 3-(4-((1-(2-Fluorobenzyl)-1H-1,2,3-triazol-4-yl)methoxy)phenyl)-8-methoxy-2H-chromen-2-one], for which, in test [1], the “ee AChE %inhib.” value is reported as 4.0%. Further, the “eq BuChE %inhib.” value in test [3] amounted to 8.0%. In addition, in test [2], the IC50 is 14.2 ± 0.4 µM.
In the case of `COc1cc2c(cc1OC)C(=O)C(CC1CCN(Cc3ccccc3)CC1)C2` (centres unmarked) [Donepezil, donepezil, reference compound], the “Inhibition of self-induced Aβ1-42 aggregation” value in test [4] came to 42.5 ± 0.3%.
With `O=c1oc2ccccc2cc1-c1ccc(OCc2cn(Cc3cccc([N+](=O)[O-])c3)nn2)cc1` [8i, 3-(4-((1-(3-Nitrobenzyl)-1H-1,2,3-triazol-4-yl)methoxy)phenyl)-2H-chromen-2-one], the “ee AChE %inhib.” value in test [1] is given as 49.9%. The IC50 in test [2] (setting [5]) was above 100 µM.
As to `O=c1oc2ccccc2cc1-c1ccc(OCc2cn(Cc3ccc([N+](=O)[O-])cc3)nn2)cc1` [8j, 3-(4-((1-(4-Nitrobenzyl)-1H-1,2,3-triazol-4-yl)methoxy)phenyl)-2H-chromen-2-one], the “ee AChE %inhib.” value in test [1] worked out at 14.7%. Moreover, the 50% inhibitory concentration (IC50) in test [2] (setting [5]) is above 100 µM.
Consider `O=c1oc2ccccc2cc1-c1ccc(OCc2cn(Cc3ccc(Br)cc3)nn2)cc1` [8g, 3-(4-((1-(4-Bromobenzyl)-1H-1,2,3-triazol-4-yl)methoxy)phenyl)-2H-chromen-2-one], for which the “ee AChE %inhib.” value in test [1] worked out at 35.5%. Besides, the “eq BuChE %inhib.” value in test [3] is reported as 46.7%. Further, the IC50 in test [2] (setting [5]) is above 100 µM.
With `COc1cccc2cc(-c3ccc(OCc4cn(Cc5ccc(Cl)cc5)nn4)cc3)c(=O)oc12` [8r, 3-(4-((1-(4-Chlorobenzyl)-1H-1,2,3-triazol-4-yl)methoxy)phenyl)-8-methoxy-2H-chromen-2-one], the “ee AChE %inhib.” value in test [1] was 41.5%. Also, the IC50 in test [3] is 6.7 ± 0.4 µM; in test [2], above 100 µM.
The corresponding values for `COc1cccc2cc(-c3ccc(OCc4cn(Cc5ccc(F)cc5)nn4)cc3)c(=O)oc12` [8q, 3-(4-((1-(4-Fluorobenzyl)-1H-1,2,3-triazol-4-yl)methoxy)phenyl)-8-methoxy-2H-chromen-2-one] are 38.1%, 18.9 ± 0.9 µM and 35 ± 1.3 µM.
The like results for `O=c1oc2ccccc2cc1-c1ccc(OCc2cn(Cc3ccccc3)nn2)cc1` [8a, 3-(4-((1-Benzyl-1H-1,2,3-triazol-4-yl)methoxy)phenyl)-2H-chromen-2-one] were, in that order, 23.6%, 27.6 ± 1.3 µM and 36.2 ± 1.5 µM.
As for `COc1cccc2cc(-c3ccc(OCc4cn(Cc5cccc(F)c5)nn4)cc3)c(=O)oc12` [8p, 3-(4-((1-(3-Fluorobenzyl)-1H-1,2,3-triazol-4-yl)methoxy)phenyl)-8-methoxy-2H-chromen-2-one], the “ee AChE %inhib.” value in test [1] is recorded as 29.8%. In addition, the “eq BuChE %inhib.” value in test [3] came to 41.7%. In test [2], inhibition was half-maximal at 22.6 ± 0.8 µM (IC50).
As for `O=c1oc2ccc([N+](=O)[O-])cc2cc1-c1ccc(OCc2cn(Cc3ccccc3)nn2)cc1` [8v, 3-(4-((1-Benzyl-1H-1,2,3-triazol-4-yl)methoxy)phenyl)-6-nitro-2H-chromen-2-one], the “ee AChE %inhib.” value in test [1] worked out at 48.3%. Moreover, the IC50 in test [3] is 6.3 ± 0.4 µM; in test [2], above 100 µM.
For the compound `COc1ccc(Cn2cc(COc3ccc(-c4cc5ccccc5oc4=O)cc3)nn2)cc1` [8m, 3-(4-((1-(4-Methoxybenzyl)-1H-1,2,3-triazol-4-yl)methoxy)phenyl)-2H-chromen-2-one], the “ee AChE %inhib.” value in test [1] turned out to be 26.6%. For the same compound, the “eq BuChE %inhib.” value in test [3] was found to be 40.2%. In addition, it took 41 ± 1.4 µM to reach half-maximal inhibition in test [2] (IC50).
With `O=c1oc2ccccc2cc1-c1ccc(OCc2cn(Cc3cccc(F)c3)nn2)cc1` [8c, 3-(4-((1-(3-Fluorobenzyl)-1H-1,2,3-triazol-4-yl)methoxy)phenyl)-2H-chromen-2-one], in test [1], the “ee AChE %inhib.” value is reported as 15.3%. Moreover, the “eq BuChE %inhib.” value in test [3] is listed as 48.9%. The IC50 in test [2] is 28.3 ± 1.4 µM.
